Laboratory results taken from BigSolDB 2.1.

COc1ccccc1N1CCN(CC(O)COc2cccc3ccccc23)CC1 (centres undefined)
solubility (mole fraction)
Settings | 273.15 K | 278.15 K | 283.15 K | 288.15 K | 293.15 K | 298.15 K | 303.15 K | 308.15 K | 313.15 K
in acetone | 0.00318 | 0.00399 | 0.00481 | 0.00579 | 0.00676 | 0.00782 | 0.00894 | 0.0102 | 0.0118
in acetonitrile | 0.00113 | 0.00132 | 0.00156 | 0.00182 | 0.00208 | 0.00244 | 0.0028 | 0.00321 | 0.00372
in ethanol | 0.000817 | 0.000955 | 0.00112 | 0.00131 | 0.00152 | 0.00175 | 0.00198 | 0.00229 | 0.00266
in ethyl acetate | 0.00438 | 0.00503 | 0.00585 | 0.0067 | 0.00768 | 0.0087 | 0.00998 | 0.0112 | 0.0126
in methanol | 0.00056 | 0.000636 | 0.000719 | 0.000822 | 0.000922 | 0.00104 | 0.00118 | 0.00133 | 0.0015
in toluene | 0.00534 | 0.00633 | 0.00727 | 0.00847 | 0.00978 | 0.0113 | 0.0129 | 0.0149 | 0.017
